Consider 10 compounds from ChEMBL document CHEMBL1153391 (J Med Chem, 2009).

In one data set the target is Procathepsin L (Homo sapiens, UniProt P07711). Briefly: Inhibition of cathepsin L.
The target of another data set is Cathepsin B (Homo sapiens, UniProt P07858). Put plainly: Inhibition of cathepsin B.
A short description of data set [1]: Inhibition of Plasmodium falciparum falcipain-2.
The next data set relates to Plasmodium falciparum. Briefly: Antiplasmodial activity against Plasmodium falciparum FCBR. It counts as functional, organism-based.
Data set [2] in a line: Apparent permeability across human Caco-2 cells. It counts as ADME, cell-based. In general terms: Caco-2 monolayers are a common model of the intestinal barrier.
Data set [3] in a line: Cytotoxicity against human HEK293T cells. It counts as cell-based. As to conditions: HEK-293T.
Data set [4] is described as follows: Cytotoxicity against mouse J774.1 cells. It counts as cell-based.
Data set [5] is described as follows: Cytotoxicity against mouse DC.
The nature of data set [6]: Apparent permeability from apical to basolateral side of human Caco-2 cells.
Data set [7] in a line: Apparent permeability from basolateral to apical side of human Caco-2 cells.

Some results are limits rather than exact numbers.

Procathepsin L, sequence (P07711 whole entry): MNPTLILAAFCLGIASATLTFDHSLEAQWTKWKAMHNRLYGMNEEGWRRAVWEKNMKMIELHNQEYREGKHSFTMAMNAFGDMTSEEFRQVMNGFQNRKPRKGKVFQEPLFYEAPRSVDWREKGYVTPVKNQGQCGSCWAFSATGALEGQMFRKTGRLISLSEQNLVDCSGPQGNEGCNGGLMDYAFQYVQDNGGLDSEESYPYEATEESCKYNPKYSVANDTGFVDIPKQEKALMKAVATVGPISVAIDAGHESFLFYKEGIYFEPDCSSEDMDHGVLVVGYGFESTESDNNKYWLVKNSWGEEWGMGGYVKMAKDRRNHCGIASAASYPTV

A word on the Ki: it is the dissociation constant of the complex between target and ligand, obtained from inhibition or displacement. Broadly, the IC50 is the concentration that gives 50% inhibition. Low values mean greater potency in that assay, high ones weaker potency in that assay. For the compound `CN(C)C(=O)/C=C/CNC(=O)CN1C(=O)[C@@H](COC(=O)Nc2ccc(Cl)cc2C(F)(F)F)N=C(c2ccccc2)c2ccccc21`, the results for the Ki (on Procathepsin L; at Cathepsin B; in data set [1]) were 1.9 µM, 0.85 µM and 0.076 µM, respectively. This compound came in with an IC50 with Plasmodium falciparum of more than 100 µM.

In the case of `CC(=O)/C=C/[C@H](CCc1ccccc1)NC(=O)CN1C(=O)[C@@H](COC(=O)Nc2ccc(Cl)cc2C(F)(F)F)N=C(c2ccccc2)c2ccccc21`, the Ki at Procathepsin L was found to be 7.5 µM; at Cathepsin B, 8.4 µM.

Consider `COC(=O)/C=C/[C@H](CCc1ccccc1)NC(=O)CN1C(=O)[C@@H](COC(=O)Nc2ccc(Cl)cc2C(F)(F)F)N=C(c2ccccc2)c2ccccc21`, for which the results for the Ki at Procathepsin L and on Cathepsin B were 2.7 µM and 13.7 µM, respectively.

As for `CN(C)C(=O)/C=C/[C@H](CCc1ccccc1)NC(=O)CN1C(=O)[C@@H](COC(=O)Nc2ccc(Cl)cc2C(F)(F)F)N=C(c2ccccc2)c2ccccc21`, the Ki at Procathepsin L was 7.4 µM; at Cathepsin B, 6.4 µM; in [1], 0.076 µM.

The term Papp denotes a coefficient for how fast a substance crosses the barrier. Take `COC(=O)/C=C/CNC(=O)CN1C(=O)[C@@H](COC(=O)Nc2ccc(Cl)cc2C(F)(F)F)N=C(c2ccccc2)c2ccccc21`: the Ki at Procathepsin L turned out to be 8.4 µM; at Cathepsin B it was 7.3 µM; in data set [1], 0.017 µM. Moreover, in data set [2], the Papp was 3.82 ×10⁻⁶ cm/s. Moreover, the IC50 came out at 31.2 µM in data set [3], 31.3 µM in data set [4], 30.4 µM in [5] and 12 µM with Plasmodium falciparum.

Turning to `N#C/C=C/CNC(=O)CN1C(=O)[C@@H](COC(=O)Nc2ccc(Cl)cc2C(F)(F)F)N=C(c2ccccc2)c2ccccc21`, the values for the Ki (at Procathepsin L; on Cathepsin B; in [1]) were 3.2 µM, 9.9 µM and 0.19 µM, respectively. In the data set with Plasmodium falciparum, this compound had an IC50 of 36.1 µM.

Take `CC(=O)/C=C/CNC(=O)CN1C(=O)[C@@H](COC(=O)Nc2ccc(Cl)cc2C(F)(F)F)N=C(c2ccccc2)c2ccccc21`: the Ki on Procathepsin L is 5.9 µM; on Cathepsin B, 6 µM. The same compound gave an IC50 in the data set on Plasmodium falciparum of 9.3 µM.

By Papp A→B is commonly meant the apparent permeability from the apical to the basolateral side of a cell layer. As usually defined, the Papp B→A is the apparent permeability from the basolateral to the apical side of a cell layer. In the case of `CN/C(=N/CCSCc1nc[nH]c1C)NC#N` [CIMETIDINE], the Papp A→B in data set [6] stood at 0.56 ×10⁻⁶ cm/s. Moreover, in data set [7], the Papp B→A worked out at 1.5 ×10⁻⁶ cm/s.

Consider `CC(C)C[C@H](NC(=O)[C@H]1O[C@@H]1C(=O)O)C(=O)NCCCCN=C(N)N` [E-64], for which the Ki in data set [1] was determined as 0.29 µM.

`CC[C@]1(O)C[C@@H]2CN(CCc3c([nH]c4ccccc34)[C@@](C(=O)OC)(c3cc4c(cc3OC)N(C)[C@H]3[C@@](O)(C(=O)OC)[C@H](OC(C)=O)[C@]5(CC)C=CCN6CC[C@]43[C@@H]65)C2)C1` [VINBLASTINE]: the Papp in data set [2] came out at 0.51 ×10⁻⁶ cm/s.
